{"source": "ChEMBL document CHEMBL6103630", "about": "“Discovery of Novel 2,4,5-Trisubstituted Pyrimidine Derivatives as Potent and Selective FGFR Inhibitors against Gatekeeper Mutants for the Treatment of NSCLC” (J Med Chem, 2025)", "key": {"NCI-H1581 [1]": {"test_system": "NCI-H1581", "test": "Inhibition of colony formation in human NCI-H1581 cells at 10 nM incubated for 48 hrs by crystal violet staining based assay", "format": "functional, cell-based"}, "[2]": {"test": "AUC(0 to t) in male Sprague-Dawley rat at 2 mg/kg, iv by UHPLC-MS/MS analysis", "format": "ADME, organism-based", "conditions": "in vivo"}, "NCI-H1581 [3]": {"test_system": "NCI-H1581", "test": "Inhibition of AKT (unknown origin) phosphorylation in human NCI-H1581 cells at 40 nM by Western blotting analysis", "format": "cell-based"}, "[4]": {"test": "Half life in male Sprague-Dawley rat at 10 mg/kg, po by UHPLC-MS/MS analysis", "format": "ADME, organism-based", "conditions": "in vivo"}, "[5]": {"test": "Tmax in male Sprague-Dawley rat at 2 mg/kg, iv by UHPLC-MS/MS analysis", "format": "ADME, organism-based", "conditions": "in vivo"}, "Mus musculus [6]": {"test_system": "Mus musculus", "test": "In vivo inhibition of FGFR1 signaling pathway in BALB/c nude mouse xenografted with rat L6 cells harboring FGFR1 V561M mutant assessed as suppression of FGFR1 phosphorylation in tumor at 60 mg/kg by Western blotting analysis", "format": "functional, organism-based"}, "[7]": {"target": "Fibroblast growth factor receptor 3 (Homo sapiens, UniProt P22607, V555L)", "sequence (P22607 23-806 V555L limits assumed)": "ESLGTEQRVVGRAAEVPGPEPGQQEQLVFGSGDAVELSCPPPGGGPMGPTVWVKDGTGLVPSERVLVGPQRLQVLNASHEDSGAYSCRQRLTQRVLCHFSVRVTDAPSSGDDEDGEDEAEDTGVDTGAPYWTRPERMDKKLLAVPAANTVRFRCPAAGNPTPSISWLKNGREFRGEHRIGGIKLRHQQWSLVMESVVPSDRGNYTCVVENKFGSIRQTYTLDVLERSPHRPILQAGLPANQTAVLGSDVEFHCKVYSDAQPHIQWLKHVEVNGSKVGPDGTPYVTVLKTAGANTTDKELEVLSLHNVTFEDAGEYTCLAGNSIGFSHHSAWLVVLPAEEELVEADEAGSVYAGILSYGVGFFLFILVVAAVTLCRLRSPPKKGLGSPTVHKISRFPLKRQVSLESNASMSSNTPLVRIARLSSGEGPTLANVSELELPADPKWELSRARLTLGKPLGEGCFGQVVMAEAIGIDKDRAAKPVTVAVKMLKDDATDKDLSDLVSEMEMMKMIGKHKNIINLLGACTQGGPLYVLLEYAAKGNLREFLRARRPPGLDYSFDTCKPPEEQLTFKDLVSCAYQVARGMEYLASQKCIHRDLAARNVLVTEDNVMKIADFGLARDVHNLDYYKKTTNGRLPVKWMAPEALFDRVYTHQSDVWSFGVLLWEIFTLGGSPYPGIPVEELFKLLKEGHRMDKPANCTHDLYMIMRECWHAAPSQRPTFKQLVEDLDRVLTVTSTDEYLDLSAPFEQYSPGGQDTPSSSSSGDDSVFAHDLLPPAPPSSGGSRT", "test": "Inhibition of FGFR3 V555L mutant (unknown origin) by caliper mobility shift assay"}, "[8]": {"test": "Toxicity in ICR mouse assessed as drug tolerance at 80 mg/kg, po measured after 7 days", "format": "organism-based", "conditions": "in vivo, 168 h, time 7 day"}, "NCI-H1581 [9]": {"test_system": "NCI-H1581", "test": "Inhibition of cell migration in human NCI-H1581 cells at 40 nM incubated upto 72 hrs by wound healing assay (reference value: 80%)", "format": "functional"}, "A549 [10]": {"test_system": "A549", "test": "Inhibition of AKT (unknown origin) phosphorylation in human A549 cells at 250 to 1000 nM by Western blotting analysis", "format": "cell-based", "conditions": "dose 250-1000 nM"}, "[11]": {"target": "Fibroblast growth factor receptor 4 (Homo sapiens, UniProt P22455)", "sequence (P22455 whole entry)": "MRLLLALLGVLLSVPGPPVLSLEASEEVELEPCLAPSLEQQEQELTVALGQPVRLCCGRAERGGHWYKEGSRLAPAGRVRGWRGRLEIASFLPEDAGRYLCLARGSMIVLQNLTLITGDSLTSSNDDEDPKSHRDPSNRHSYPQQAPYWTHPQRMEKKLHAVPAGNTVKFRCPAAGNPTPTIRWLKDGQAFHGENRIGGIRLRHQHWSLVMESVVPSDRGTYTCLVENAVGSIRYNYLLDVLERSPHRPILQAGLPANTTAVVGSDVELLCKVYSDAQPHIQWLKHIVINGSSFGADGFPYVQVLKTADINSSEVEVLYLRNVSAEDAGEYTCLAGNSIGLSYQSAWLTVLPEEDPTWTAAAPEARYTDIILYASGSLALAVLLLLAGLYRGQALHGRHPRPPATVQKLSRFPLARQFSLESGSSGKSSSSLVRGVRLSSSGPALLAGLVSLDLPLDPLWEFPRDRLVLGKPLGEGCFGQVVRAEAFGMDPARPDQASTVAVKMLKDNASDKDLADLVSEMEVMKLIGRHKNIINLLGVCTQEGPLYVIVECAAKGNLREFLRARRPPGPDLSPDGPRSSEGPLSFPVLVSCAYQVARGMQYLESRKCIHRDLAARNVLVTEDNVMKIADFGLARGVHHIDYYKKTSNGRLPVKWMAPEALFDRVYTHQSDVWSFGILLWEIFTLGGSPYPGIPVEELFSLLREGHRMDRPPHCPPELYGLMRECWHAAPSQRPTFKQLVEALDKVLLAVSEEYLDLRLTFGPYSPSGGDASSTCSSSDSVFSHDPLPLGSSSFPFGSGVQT", "test": "Inhibition of wild type FGFR4 (unknown origin) by caliper mobility shift assay"}, "A549 [12]": {"test_system": "A549", "test": "cells", "conditions": "Homo sapiens, A549, 48 h", "description": "Antiproliferative activity against human A549 cells assessed as inhibition of cell proliferation incubated for 48 hrs by MTT assay"}, "[13]": {"test": "Toxicity in ICR mouse assessed as change in kidney weight at 80 mg/kg, po measured after 7 days", "format": "organism-based", "conditions": "in vivo, 168 h, time 7 day"}, "[14]": {"test": "AUC(0 to infinity) in male Sprague-Dawley rat at 10 mg/kg, po by UHPLC-MS/MS analysis", "format": "ADME, organism-based", "conditions": "in vivo"}, "[15]": {"test": "Toxicity in BALB/c nude mouse xenografted with rat L6 cells harboring FGFR V561M mutant assessed as change in spleen weight at 30 to 60 mg/kg and measured daily for 14 days", "format": "organism-based", "conditions": "in vivo, 336 h, dose 30-60 mg/kg, time 14 day"}, "NCI-H1581 [16]": {"test_system": "NCI-H1581", "test": "Inhibition of colony formation in human NCI-H1581 cells incubated for 48 hrs by crystal violet staining based assay", "format": "functional, cell-based", "conditions": "dose 10-40 nM"}, "[17]": {"test": "Toxicity in ICR mouse assessed as histopathological changes in liver at 80 mg/kg, po by H and E staining based analysis", "format": "organism-based", "conditions": "in vivo"}, "NCI-H1581 [18]": {"test_system": "NCI-H1581", "test": "Antitumor activity against human NCI-H1581 cells xenografted in BALB/c nude mouse assessed as tumor growth inhibition at 60 mg/kg relative to control", "format": "functional", "conditions": "read-out: TGI"}, "NCI-H1581 [19]": {"test_system": "NCI-H1581", "test": "Inhibition of cell adhesion in human NCI-H1581 cells by crystal violet staining based analysis", "format": "functional", "conditions": "dose 10-40 nM"}, "[20]": {"target": "T1, Fibroblast growth factor receptor 3 (Homo sapiens, UniProt P22607)", "test": "Inhibition of wild type FGFR3 (unknown origin) by caliper mobility shift assay"}, "NCI-H1581 [21]": {"test_system": "NCI-H1581", "test": "Inhibition of cell migration in human NCI-H1581 cells incubated upto 72 hrs by wound healing assay", "format": "functional, cell-based", "conditions": "dose 10-40 µM"}, "[22]": {"test": "Hepatotoxicity in ICR mouse assessed as change in AST level at 80 mg/kg, po", "format": "toxicity, organism-based", "conditions": "in vivo"}, "NCI-H1581 [23]": {"test_system": "NCI-H1581", "test": "Antitumor activity against human NCI-H1581 cells xenografted in BALB/c nude mouse assessed as induction of apoptosis in tumor by H and E staining based analysis", "format": "functional, cell-based"}, "[24]": {"target": "Fibroblast growth factor receptor 2 (Homo sapiens, UniProt P21802, V564F)", "sequence (P21802 22-821 V564F limits assumed)": "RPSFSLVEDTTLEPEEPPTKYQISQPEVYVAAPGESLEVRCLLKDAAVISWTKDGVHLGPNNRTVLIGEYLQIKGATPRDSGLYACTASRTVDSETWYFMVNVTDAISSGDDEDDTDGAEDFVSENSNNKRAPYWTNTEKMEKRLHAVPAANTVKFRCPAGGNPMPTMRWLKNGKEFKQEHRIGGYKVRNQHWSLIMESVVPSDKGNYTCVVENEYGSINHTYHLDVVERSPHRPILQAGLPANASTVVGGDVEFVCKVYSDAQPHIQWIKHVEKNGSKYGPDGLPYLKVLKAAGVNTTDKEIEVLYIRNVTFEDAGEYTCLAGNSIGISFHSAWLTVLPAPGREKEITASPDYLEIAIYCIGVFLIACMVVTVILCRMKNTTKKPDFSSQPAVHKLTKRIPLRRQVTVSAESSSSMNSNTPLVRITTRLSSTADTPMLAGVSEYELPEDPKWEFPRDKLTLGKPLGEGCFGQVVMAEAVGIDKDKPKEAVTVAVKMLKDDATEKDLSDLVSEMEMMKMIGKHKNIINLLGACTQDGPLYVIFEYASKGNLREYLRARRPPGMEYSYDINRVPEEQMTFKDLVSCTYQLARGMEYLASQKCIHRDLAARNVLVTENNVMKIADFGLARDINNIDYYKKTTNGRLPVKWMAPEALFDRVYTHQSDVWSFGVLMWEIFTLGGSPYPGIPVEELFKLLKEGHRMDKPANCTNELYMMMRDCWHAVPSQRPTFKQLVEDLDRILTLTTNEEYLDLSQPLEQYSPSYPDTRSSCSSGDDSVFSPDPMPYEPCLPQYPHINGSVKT"}, "L6": {"test_system": "L6", "test": "Antitumor activity against rat L6 cells harboring FGFR1 V561M mutant xenografted in BALB/c nude mouse assessed as induction of apoptosis in tumor at 30 to 60 mg/kg by H and E staining based analysis", "format": "functional, organism-based", "conditions": "dose 30-60 mg/kg"}, "[25]": {"test": "Oral bioavailability in male Sprague-Dawley rat at 2 mg/kg, iv by UHPLC-MS/MS analysis", "format": "ADME, organism-based", "conditions": "in vivo"}, "[26]": {"test": "Toxicity in BALB/c nude mouse xenografted with rat L6 cells harboring FGFR V561M mutant assessed as change in body weight at 30 to 60 mg/kg and measured daily", "format": "organism-based", "conditions": "in vivo, dose 30-60 mg/kg"}, "NCI-H1581 [27]": {"test_system": "NCI-H1581", "test": "Inhibition of DNA replication in human NCI-H1581 cells incubated for 1 hrs by EdU staining based analysis", "format": "functional, cell-based", "conditions": "dose 100.0 µM"}, "[28]": {"test": "Tmax in male Sprague-Dawley rat at 10 mg/kg, po by UHPLC-MS/MS analysis", "format": "ADME, organism-based", "conditions": "in vivo"}, "[29]": {"test": "Toxicity in BALB/c nude mouse xenografted with human NCI-H1581 cells assessed as change in body weight"}, "[30]": {"test": "AUC(0 to infinity) in male Sprague-Dawley rat at 2 mg/kg, iv by UHPLC-MS/MS analysis", "format": "ADME, organism-based", "conditions": "in vivo"}, "Mus musculus [31]": {"test_system": "Mus musculus", "test": "In vivo inhibition of ERK phosphorylation in BALB/c nude mouse xenografted with rat L6 cells harboring FGFR1 V561M mutant assessed as suppression of ERK level in tumor at 60 mg/kg by Western blotting analysis", "format": "functional, organism-based"}, "[32]": {"test": "Toxicity in BALB/c nude mouse xenografted with rat L6 cells harboring FGFR V561M mutant assessed as change in heart weight at 30 to 60 mg/kg and measured daily for 14 days", "format": "organism-based", "conditions": "in vivo, 336 h, dose 30-60 mg/kg, time 14 day"}, "[33]": {"target": "Fibroblast growth factor receptor 2 (Homo sapiens, UniProt P21802, V564I)", "sequence (P21802 22-821 V564I limits assumed)": "as the sequence (P21802 22-821 V564F limits assumed) above, with F543I counted along it"}, "[34]": {"test": "Toxicity in BALB/c nude mouse xenografted with human NCI-H1581 cells assessed as change in kidney weight and measured after 14 days", "format": "tissue-based", "conditions": "336 h, time 14 day"}, "[35]": {"target": "Platelet-derived growth factor receptor alpha (Homo sapiens) (UniProt P16234)", "sequence (P16234 whole entry)": "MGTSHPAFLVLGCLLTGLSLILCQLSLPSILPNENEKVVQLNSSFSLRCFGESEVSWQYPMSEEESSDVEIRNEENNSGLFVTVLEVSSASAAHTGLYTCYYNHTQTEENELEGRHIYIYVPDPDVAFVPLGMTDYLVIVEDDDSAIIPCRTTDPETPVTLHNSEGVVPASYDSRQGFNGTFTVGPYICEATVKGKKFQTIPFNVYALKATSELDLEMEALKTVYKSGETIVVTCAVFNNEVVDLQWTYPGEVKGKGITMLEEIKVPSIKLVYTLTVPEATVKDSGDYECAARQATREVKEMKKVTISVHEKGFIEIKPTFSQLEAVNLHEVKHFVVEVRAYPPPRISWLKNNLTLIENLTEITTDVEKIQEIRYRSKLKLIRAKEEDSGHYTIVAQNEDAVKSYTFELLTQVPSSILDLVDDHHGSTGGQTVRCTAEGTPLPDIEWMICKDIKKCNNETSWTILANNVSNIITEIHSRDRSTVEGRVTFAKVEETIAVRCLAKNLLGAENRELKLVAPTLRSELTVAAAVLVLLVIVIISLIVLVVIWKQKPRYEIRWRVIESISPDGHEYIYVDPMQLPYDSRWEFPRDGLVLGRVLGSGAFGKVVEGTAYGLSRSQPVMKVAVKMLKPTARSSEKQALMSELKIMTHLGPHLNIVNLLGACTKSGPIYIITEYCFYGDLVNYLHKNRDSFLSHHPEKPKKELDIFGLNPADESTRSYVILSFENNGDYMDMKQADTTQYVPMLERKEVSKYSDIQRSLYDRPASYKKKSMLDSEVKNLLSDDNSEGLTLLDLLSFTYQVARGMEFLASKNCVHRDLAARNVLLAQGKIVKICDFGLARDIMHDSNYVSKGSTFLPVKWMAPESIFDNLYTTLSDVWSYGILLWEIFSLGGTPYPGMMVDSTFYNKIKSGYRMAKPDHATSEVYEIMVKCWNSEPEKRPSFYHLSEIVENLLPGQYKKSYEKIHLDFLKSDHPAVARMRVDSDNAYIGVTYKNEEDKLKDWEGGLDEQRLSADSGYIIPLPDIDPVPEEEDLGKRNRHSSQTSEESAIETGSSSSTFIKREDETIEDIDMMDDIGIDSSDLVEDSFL", "test": "Inhibition of PDGFRalpha (unknown origin)"}, "[36]": {"test": "Toxicity in BALB/c nude mouse xenografted with human NCI-H1581 cells assessed as change in heart weight and measured after 14 days", "format": "tissue-based", "conditions": "336 h, time 14 day"}, "[37]": {"test": "Nephrotoxicity in ICR mouse assessed as change in Cr level at 80 mg/kg, po", "format": "toxicity, organism-based", "conditions": "in vivo"}, "[38]": {"test": "Toxicity in ICR mouse assessed as change in lung weight at 80 mg/kg, po measured after 7 days", "format": "organism-based", "conditions": "in vivo, 168 h, time 7 day"}, "[39]": {"target": "T1, Fibroblast growth factor receptor 3", "test": "Binding affinity to FGFR3 (unknown origin) at 0.1 uM"}, "[40]": {"test": "Toxicity in BALB/c nude mouse xenografted with human NCI-H1581 cells assessed as change in ALT level at 60 mg/kg", "format": "organism-based", "conditions": "in vivo"}, "[41]": {"test": "AUC(0 to t) in male Sprague-Dawley rat at 10 mg/kg, po by UHPLC-MS/MS analysis", "format": "ADME, organism-based", "conditions": "in vivo"}, "[42]": {"target": "Fibroblast growth factor receptor 2 (Homo sapiens, UniProt P21802)", "sequence (P21802 22-821 limits assumed)": "as the sequence (P21802 22-821 V564F limits assumed) above, with F543V counted along it", "test": "Covalent irreversible binding affinity to FGFR2 (unknown origin) by MALDI-TOF MS analysis"}}, "note": "The source made the active and inactive calls. No cut-off for these calls is given here.", "data": [{"smiles": "C=CC(=O)Nc1ccc(Nc2nc(Nc3ccc(N4C[C@@H](C)N[C@@H](C)C4)c(OC)c3)ncc2Cl)cc1Cl", "values": [{"measurement": "inhibition", "setting": "NCI-H1581 [1]", "value": "Active; Stronger Inhibition Observed"}, {"measurement": "AUC(0-t)", "setting": "[2]", "value": 1940, "unit": "ng·h/mL"}, {"measurement": "inhibition", "setting": "NCI-H1581 [3]", "value": "Active; Greater Inhibition Observed Compared To Infigratinib"}, {"measurement": "half-life", "setting": "[4]", "value": 311, "unit": "min"}, {"measurement": "Tmax", "setting": "[5]", "value": 4.8, "unit": "min"}, {"measurement": "inhibition", "setting": "Mus musculus [6]", "value": "Active"}, {"measurement": "IC50", "setting": "[7]", "value": 2.2, "unit": "nM"}, {"measurement": "Activity", "setting": "[8]", "value": "Non-toxic"}, {"measurement": "inhibition at 0.04 µM", "setting": "NCI-H1581 [9]", "value": 40, "unit": "%"}, {"measurement": "inhibition", "setting": "A549 [10]", "value": "Dose-dependent-effect"}, {"measurement": "IC50", "setting": "[11]", "value": 486, "unit": "nM"}, {"measurement": "IC50", "setting": "A549 [12]", "value": 380, "unit": "nM"}, {"measurement": "Activity", "setting": "[13]", "value": "Non-toxic"}, {"measurement": "AUC(0-inf)", "setting": "[14]", "value": 12900, "unit": "ng·h/mL"}, {"measurement": "Activity", "setting": "[15]", "value": "Non-toxic"}, {"measurement": "inhibition", "setting": "NCI-H1581 [16]", "value": "Dose-dependent-effect"}, {"measurement": "Activity", "setting": "[17]", "value": "Non-toxic"}, {"measurement": "inhibition in vivo at 60 mg/kg", "setting": "NCI-H1581 [18]", "value": 61, "unit": "%"}, {"measurement": "inhibition", "setting": "NCI-H1581 [19]", "value": "Dose-dependent-effect"}, {"measurement": "IC50", "setting": "[20]", "value": 19.4, "unit": "nM"}, {"measurement": "inhibition", "setting": "NCI-H1581 [21]", "value": "Dose-dependent-effect"}, {"measurement": "Activity", "setting": "[22]", "value": "Non-toxic"}, {"measurement": "Activity", "setting": "NCI-H1581 [23]", "value": "Active"}, {"measurement": "IC50", "setting": "[24]", "value": 1.5, "unit": "nM"}, {"measurement": "Activity", "setting": "L6", "value": "Active"}, {"measurement": "bioavailability", "setting": "[25]", "value": 47.7, "unit": "%"}, {"measurement": "Activity", "setting": "[26]", "value": "Non-toxic"}, {"measurement": "inhibition", "setting": "NCI-H1581 [27]", "value": "Dose-dependent-effect"}, {"measurement": "Tmax", "setting": "[28]", "value": 30, "unit": "min"}, {"measurement": "Activity", "setting": "[29]", "value": "Non-toxic"}, {"measurement": "AUC(0-inf)", "setting": "[30]", "value": 5400, "unit": "ng·h/mL"}, {"measurement": "inhibition", "setting": "Mus musculus [31]", "value": "Active"}, {"measurement": "Activity", "setting": "[32]", "value": "Non-toxic"}, {"measurement": "IC50", "setting": "[33]", "value": 29.9, "unit": "nM"}, {"measurement": "Activity", "setting": "[34]", "value": "Non-toxic"}, {"measurement": "inhibition", "setting": "[35]", "value": "Not active; Moderate To Weak Inhibitory Activity Observed"}, {"measurement": "Activity", "setting": "[36]", "value": "Non-toxic"}, {"measurement": "Activity", "setting": "[37]", "value": "Non-toxic"}, {"measurement": "Activity", "setting": "[38]", "value": "Non-toxic"}, {"measurement": "Activity", "setting": "[39]", "value": "Not active; Reduced Affinities Observed"}, {"measurement": "Activity", "setting": "[40]", "value": "Non-toxic"}, {"measurement": "AUC(0-t)", "setting": "[41]", "value": 7800, "unit": "ng·h/mL"}, {"measurement": "Activity", "setting": "[42]", "value": "Active"}]}]}
